Read-outs that look alike come from different tables or passages of the source.
Key:
[1] = system: KTC-1; assay: Cell growth assay, experiment 1 (cell count kit 48 h; growth curve 5 days); conditions: for cell number quantified with a cell count kit (Wako), mean: 48 hour-treatment, no SALT I: 0.413
[2] = system: TPC-1; conditions: TPC-1, 10 μM of SALT I, 48 hours
Description: (§1) For flow cytometry analysis, cells were fixed with 70% ethanol and wash with PBS. After pre-incubation with RNase A (0.1 mg per ml) at room temperature, cells were stained with PI (25 μg per ml). Fluorescence was measured by using FACScan flow cytometer (Becton Dickinson, Mountain View, Calif.). This experiment was performed at least three times.

[3] = system: thyroid cancer cell lines
Description: as §1

[4] = system: 1F3 cell line; conditions: IF3 cells, 10 μM of SALT I (data not shown)
[5] = system: cell cycle regulatory proteins (p21cip1, p27kip1, cyclin A, B1, CDC2, cyclin D3)
From the text: After transfer onto nitrocellulose membranes (Pall Corporation, Ann Arbor, Mich., USA), blots were probed with the appropriate antibodies. β-actin was used as a loading control. The antibodies used were: anti-p21waf1 (Ab-1, Calbiochem, Darmstardt, Germany), anti-p27-8, Santa Cruz Biotechnology, Santa Cruz, Calif., USA), anti-cyclin A (C88020, BD Biosciences, Boston, Mass., USA), anti-cyclin B1 (C23420, BD Biosciences), anti-CDK1/Cdc2 (C12720, BD Biosciences), anti-cyclin D3 (C28620, BD Biosciences), anti-Phospho-c-ABL (Tyr245, Cell Signaling Technology, Beverly, Mass., USA), anti-c-Abl (24-11, Santa Cruz Biotechnology), anti-c-KIT (C-14, Santa Cruz Biotechnology), anti-PDGFRα (C-20, Santa Cruz Biotechnology), anti-PDGFRβ (P-20, Santa Cruz Biotechnology), anti-ERK1/2 (Cell Signalling Technology), anti-p-ERK (Cell Signalling Technology) and anti-Actin (C-11, Santa Cruz Biotechnology). Detection was performed with an enhanced chemiluminescence kit (ECL, Amersham Life Sciences, Buckinghamshire, UK). Immunoblotting experiments were performed at least twice. […] Since p53 status is likely to have some effect on the level of c-Abl protein, the expression level of c-Abl in 1F3 cells was also measured. […] The cyclin-dependent kinase (CDK) inhibitors, p21^cip1 and p27^kip1, can block CDK activity in the S to G2 as well as in the G1 to S phase transition of the cell cycle. […] The activity of CDKs is dependent, in part, on the relative abundance of cyclin subunits and the presence of CDK inhibitors. Among the cyclins and CDKs, cyclin A, B, and CDC2 are involved in the progression from G2 to M phase.

[6] = system: Refractory Progressive Thyroid Carcinoma; conditions: SALT I without any other therapy; rapid growth and invasion during the previous year
Description: This clinical study is part of the Phase I/II clinical study which is exploratory in nature.
When any mild adverse effect occurs, the dose is decreased to 200 mg once daily depending on the degree of the adverse effect. […] In principle, where the tumor size is reduced by half, the dose is increased up to 800 mg/day and continued for a maximum of six months. […] No concomitant use of an anticancer drug is permitted in principle. Drugs that relieve other conditions or symptoms may be used concomitantly with caution exercised for their adverse effects.

[7] = system: ERK1/2
Description: Abl was immunoprecipitated from cell lysates using the indicated antibody. In vitro kinase assay was performed as described previously (Dorey et al., Oncogene, 2000, […]:8075-84). Radiolabelled GST-Crk was quantified using a PhosphorImager (Molecular Dynamics, Inc., Sunnyvale, Calif., USA). […] Stimulation was with 20% FCS for 8 minutes, cell lysates were collected and subjected to SDS-PAGE and Western blotting carried out using antibodies against ERK1/2 and the phosphorylated form of ERK1/2. […] A common response to extracellular signals such as growth factors is the activation of the mitogen-activated protein (MAP) kinase cascade.

[8] = system: FRO cells; conditions: single daily administration of 50 mg/kg over 14 consecutive days, i.p.
Description: Mouse xenograft model. All mice were maintained in the Nagasaki University (Nagasaki, Japan) animal facility and all animal experiments described in this study were conducted in accordance with the principles and procedures outlined in the Guide for the Care and Use of Laboratory Animals of the Nagasaki University School of Medicine. Five million FRO cells suspended in RPMI 1640 were injected s.c. into the flanks of 8-week-old female BalB/c nu/nu mice (Charles-River Japan, Tokyo, Japan). Tumor sizes were measured every other day with calipers and tumor volumes were calculated according to the formula: a^2×b×0.4 where a is the smallest diameter and b is the diameter perpendicular to a. […] Mice in the control group received injections of pure water. The body weight feeding behavior and motor activity of each animal were monitored as indicators of general health.
Statistical analysis: Data are presented as mean ±SD unless otherwise specified. Student's t-test and Mann Whitney U test were used for comparison between two groups for parametric and nonparametric data, respectively. A p value <0.05 is considered statistically significant.

[9] = system: ARO; assay: Cell growth assay, experiment 1 (cell count kit 48 h; growth curve 5 days); conditions: for cell number quantified with a cell count kit (Wako), mean: 48 hour-treatment, no SALT I: 0.959
[10] = system: FRO; assay: as above; conditions: for cell number quantified with a cell count kit (Wako), mean: 48 hour-treatment, no SALT I: 1.677

CS(=O)(=O)O.Cc1ccc(NC(=O)c2ccc(CN3CCN(C)CC3)cc2)cc1Nc1nccc(-c2cccnc2)n1 [SALT I]
growth suppression, dose dependence ([1]; KTC-1 (wild type p53), lower than 50 μM, 48 h): do not | cell growth curve on a 5 day period ([1]; KTC-1, 10 μM of SALT I (data not shown)): do not change the cell growth | cell death ([1]; KTC-1, 50 μM of SALT I, 48 h): died | cell number quantified with a cell count kit (Wako), mean ([1]; KTC-1, SALT I 1 μM): 0.403 | cell number quantified with a cell count kit (Wako), mean ([1]; KTC-1, SALT I 10 μM): 0.379 | cell number quantified with a cell count kit (Wako), mean ([1]; KTC-1, SALT I 50 μM): 0.064 | effect on cell cycle (G2/M or S-phase changes) [2]: No such changes were observed | percentage of cells in S phase ([2]; DMSO 9.7): 9.3% | percentage of cells in G2-M phase ([2]; DMSO 22.6): 13.1% | percentage of cells in G1 phase ([2]; DMSO 67.8): 77.6% | DNA fragmentation in the DNA ladder assay ([3]; after 48 hours of treatment (data not shown)): no DNA fragmentation was detected | apoptotic fraction (sub-G1) ([3]; after 48 hours of treatment, in any cell line): did not significantly increase | cell growth curve on a 5 day period [4]: do not change the cell growth | Expression of p2^cip1 [5]: markedly increased | Expression of p27^kip1 [5]: increased | levels of cyclin A, B1 and CDC2 ([5]; ARO and FRO cell lines, 10 μM of SALT I, 24 hours): reduced | level of cyclin D3 ([5]; ARO cells, 10 μM of SALT I, 24 hours): reduced | Expression of p2^cip1 ([5]; ARO, KTC-1 and 1F3 cells, 10 μM of SALT I): did not change | levels of cyclin A, B1, CDC2 and cyclin D3 ([5]; KTC-1 and 1F3, 10 μM of SALT I, 24 hours): had no effect | tumor growth in first patient (preliminary results) [6]: stopped their growth for 3 months | phosphorylation of ERK1/2 in response to serum stimulation [7]: had no effect on its phosphorylation | level of p-ERK1/2 ([7]; ARO and FRO, 10 μM SALT I for two hours, 20% FCS for 8 minutes): did not affect | anti-tumor effect [8]: strong anti-tumor effect | growth suppression, dose dependence ([9]; ARO (mutant p53), lower than 50 μM, 48 h): show growth suppression in SALT I dose dependent manner | cell growth curve on a 5 day period ([9]; ARO, 10 μM of SALT I, compared to control cells): time-dependent reduction of cell growth | cell death ([9]; ARO, 50 μM of SALT I, 48 h): died | cell number quantified with a cell count kit (Wako), mean ([9]; ARO, SALT I 1 μM): 0.785 | cell number quantified with a cell count kit (Wako), mean ([9]; ARO, SALT I 10 μM): 0.539 | cell number quantified with a cell count kit (Wako), mean ([9]; ARO, SALT I 50 μM): 0.096 | growth suppression, dose dependence ([10]; FRO (undetectable p53), lower than 50 μM, 48 h): show growth suppression in SALT I dose dependent manner | cell growth curve on a 5 day period ([10]; FRO, 10 μM of SALT I, compared to control cells): time-dependent reduction of cell growth | cell death ([10]; FRO, 50 μM of SALT I, 48 h): died | cell number quantified with a cell count kit (Wako), mean ([10]; FRO, SALT I 1 μM): 1.414 | cell number quantified with a cell count kit (Wako), mean ([10]; FRO, SALT I 10 μM): 1.192 | cell number quantified with a cell count kit (Wako), mean ([10]; FRO, SALT I 50 μM): 0.228
